In patent US20240270809A1, “ORAL GLP RECEPTOR AGONISTS” (priority 2020, published 2024):
pEC50: −log10 of the molar value. Like-named read-outs stand apart in the source and are kept apart here. Positions of bridges follow the written chain, without caps; N, C: chain ends. Non-standard residues stand in square brackets, D forms with d. Residues, ends and D or L forms follow the SMILES beside them. *: point of attachment. Malonyl(2,2-Me2,histaminyl) = CC(C)(C(=O)NCCc1cnc[nH]1)C(=O)*; Ala(1H-tetrazol-5-yl) = N[C@@H](Cc1nnn[nH]1)C(=O)O; αMeL = CC(C)C[C@](C)(N)C(=O)O; Nle = CCCC[C@H](N)C(=O)O; Aib = CC(C)(N)C(=O)O

Assays:
[1] = target: T1, mouse GLP2 receptor (Mus musculus, UniProt Q5IXF8); test: cAMP accumulation assay, functional agonism of mouse GLP2 receptor; type: cell-based; settings: for EC50: read-out: Mouse GLP-2R agonist cAMP pEC50 (converted)
T1 construct: expressed in transfected cells; host or cells: HEK cells, transient transfection with GeneJuice
T1 sequence (Q5IXF8 1-512): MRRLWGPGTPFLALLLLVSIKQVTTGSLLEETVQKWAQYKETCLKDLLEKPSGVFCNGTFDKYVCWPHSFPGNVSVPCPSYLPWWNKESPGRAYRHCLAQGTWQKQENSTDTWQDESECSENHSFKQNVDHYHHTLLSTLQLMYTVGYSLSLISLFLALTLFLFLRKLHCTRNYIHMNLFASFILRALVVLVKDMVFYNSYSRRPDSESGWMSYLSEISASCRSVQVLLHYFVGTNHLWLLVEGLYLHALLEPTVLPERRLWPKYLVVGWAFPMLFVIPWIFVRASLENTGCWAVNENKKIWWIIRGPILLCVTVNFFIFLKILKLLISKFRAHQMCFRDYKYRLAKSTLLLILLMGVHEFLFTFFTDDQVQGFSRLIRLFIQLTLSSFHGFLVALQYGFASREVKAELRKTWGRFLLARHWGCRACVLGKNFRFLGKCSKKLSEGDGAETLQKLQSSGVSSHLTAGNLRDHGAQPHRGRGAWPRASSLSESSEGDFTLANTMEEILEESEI
Outline: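 Transiently transfected HEK cells (24 h, frozen, 8000/well) in HBSS with 0.5 mM IBMX exposed to compound concentration series for 45 min at 37 °C. cAMP measured by HTRF after lysis and 1 h at RT; pEC50 from four-parameter concentration-response fit.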

[2] = target: T2, human GLP2 receptor (Homo sapiens, UniProt O95838); test: cAMP accumulation assay, functional agonism of human GLP2 receptor; type: cell-based; settings: HEK cells infected with human GLP2 receptor BacMam virus, HTRF cAMP; for Emax: HEK293, read-out: Human GLP-2R agonist cAMP Emax; for EC50: read-out: Human GLP-2R agonist cAMP pEC50 (converted)
T2 construct: expressed in transfected cells; host or cells: HEK cells, BacMam virus transduction
T2 sequence (O95838 1-553): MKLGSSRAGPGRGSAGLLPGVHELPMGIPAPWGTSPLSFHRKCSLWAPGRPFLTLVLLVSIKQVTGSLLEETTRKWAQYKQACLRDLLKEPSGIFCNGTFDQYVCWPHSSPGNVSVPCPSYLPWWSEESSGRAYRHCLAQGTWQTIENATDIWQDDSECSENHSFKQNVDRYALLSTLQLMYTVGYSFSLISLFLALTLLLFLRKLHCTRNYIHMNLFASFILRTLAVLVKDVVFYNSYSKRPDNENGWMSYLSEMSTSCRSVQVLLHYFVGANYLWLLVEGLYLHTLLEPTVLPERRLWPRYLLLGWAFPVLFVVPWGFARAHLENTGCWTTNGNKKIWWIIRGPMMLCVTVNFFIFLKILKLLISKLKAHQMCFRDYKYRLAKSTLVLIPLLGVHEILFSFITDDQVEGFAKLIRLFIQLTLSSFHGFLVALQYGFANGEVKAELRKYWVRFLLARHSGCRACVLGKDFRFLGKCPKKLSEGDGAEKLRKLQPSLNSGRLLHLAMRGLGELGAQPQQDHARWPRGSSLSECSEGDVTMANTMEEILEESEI
Outline: (§1)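 Frozen HEK cells, previously BacMam-infected 24 h to express either receptor, are stimulated for 45 min at 37° C in IBMX-containing (0.5 mM) HBSS. The reaction is then terminated with HTRF reagents in lysis buffer.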

[3] = target: T3, human GLP1 receptor (Homo sapiens, UniProt P43220); test: cAMP accumulation assay, functional agonism of human GLP1 receptor; type: cell-based; settings: HEK cells infected with human GLP1 receptor BacMam virus, HTRF cAMP; for Emax: HEK293, read-out: Human GLP-1R agonist cAMP Emax; for EC50: read-out: Human GLP-1R agonist cAMP pEC50 (converted)
T3 construct: expressed in transfected cells; host or cells: HEK cells, BacMam virus transduction
Outline: as §1

[4] = target: T4, mouse GLP1 receptor (Mus musculus, UniProt O35659); test: cAMP accumulation assay, functional agonism of mouse GLP1 receptor; type: cell-based; settings: for EC50: read-out: Mouse GLP-1R agonist cAMP pEC50 (converted)
T4 construct: expressed in transfected cells; host or cells: HEK cells, transient transfection with GeneJuice
T4 sequence (O35659 22-463): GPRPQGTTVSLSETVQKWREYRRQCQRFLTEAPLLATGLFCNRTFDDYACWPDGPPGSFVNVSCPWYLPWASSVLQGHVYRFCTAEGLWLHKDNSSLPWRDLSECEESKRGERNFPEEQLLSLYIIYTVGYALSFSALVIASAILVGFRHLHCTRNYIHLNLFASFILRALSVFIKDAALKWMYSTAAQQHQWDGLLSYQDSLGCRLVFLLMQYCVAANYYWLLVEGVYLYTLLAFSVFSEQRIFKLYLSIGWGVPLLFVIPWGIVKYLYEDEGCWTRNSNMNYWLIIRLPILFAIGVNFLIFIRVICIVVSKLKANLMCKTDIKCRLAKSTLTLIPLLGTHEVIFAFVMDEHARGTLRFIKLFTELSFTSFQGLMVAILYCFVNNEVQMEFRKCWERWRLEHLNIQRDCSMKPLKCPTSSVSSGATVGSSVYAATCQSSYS
Method: CAMP production upon agonist stimulation of mouse GLP2 or GLP1 receptors was assessed utilizing HiRange cAMP kit (Cisbio). In brief, HEK cells were transiently transfected for 24 hours with cDNA using GeneJuice Transfection reagent (EMD Millipore) and frozen at −80° C. for later use in the assay. […] Cells were prepared in the assay buffer (HBSS (Lonza) supplemented with 0.5 mM IBMX (Tocris)). After 45 min incubation at 37° C., the reaction was stopped by addition of the HTRF detection reagents in the lysis buffer provided in the kit. Following 1-hour incubation at RT, plates were read on Pherastar FS (BMG Labtech, Inc.) using standard HTRF settings. Dotmatics Studies software was used for calculation of pEC50 values by fitting data to a four-parameter concentration response curve.

[5] = Stability of peptides in Fasted-State Simulated Intestinal Fluid (FaSSIF); type: in vitro ADME; settings: FaSSIF with 10 mg/ml pancreatin; FaSSIF pH 6.5 with 10 mg/ml pancreatin, 37° C., t = 15 mins
Method: Stability of peptides was tested in Fasted-State Simulated Intestinal Fluid (FaSSIF) prepared according to manufacturer's protocol (Biorelevant, art.no. FFF01, pH 6.5). […] FaSSIF was pre-incubated for 15 min at 37° C. and spiked with test and reference item working solutions. Experiments were conducted in duplicate in a non-serial manner. The total incubation volume per replicate was 150 μl. Sampling time points for test items were 0, 0.5, 2, 5, 10, 15 and 30 min. All samples and calibration standards (prepared in FaSSIF) were precipitated by addition of 300 μl precipitant (ACN / 2% acetic acid / 0.2% HFBA, (precipitation reagent, PR)) containing internal standard (ISTD) to 150 μl sample. After incubation for 1 h at room temperature all samples were centrifuged for 10 min at 2,200×g (room temperature).

[6] = HEK293, HEK cells transiently transfected with mouse GLP2 receptor, HTRF cAMP, read-out: Mouse GLP-2R agonist cAMP Emax
[7] = HEK cells transiently transfected with mouse GLP2 receptor, HTRF cAMP
[8] = HEK293, HEK cells transiently transfected with mouse GLP1 receptor, HTRF cAMP, read-out: Mouse GLP-1R agonist cAMP Emax
[9] = HEK cells transiently transfected with mouse GLP1 receptor, HTRF cAMP

T3 sequence (P43220 24-463): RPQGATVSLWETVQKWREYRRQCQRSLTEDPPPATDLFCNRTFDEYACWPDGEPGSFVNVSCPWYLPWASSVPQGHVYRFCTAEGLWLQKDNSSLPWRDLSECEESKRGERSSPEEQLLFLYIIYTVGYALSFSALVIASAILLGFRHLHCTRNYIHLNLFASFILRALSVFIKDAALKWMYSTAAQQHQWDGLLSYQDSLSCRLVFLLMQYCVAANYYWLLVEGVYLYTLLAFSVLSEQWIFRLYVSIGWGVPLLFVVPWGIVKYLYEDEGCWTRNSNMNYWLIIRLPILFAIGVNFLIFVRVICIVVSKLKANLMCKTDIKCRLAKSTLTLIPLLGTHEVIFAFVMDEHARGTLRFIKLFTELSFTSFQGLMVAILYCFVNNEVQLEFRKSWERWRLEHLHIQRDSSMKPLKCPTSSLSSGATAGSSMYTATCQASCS

CCCC[C@H](NC(=O)[C@H](CCC(=O)O)NC(=O)[C@H](CC(=O)O)NC(=O)[C@H](CO)NC(=O)[C@H](Cc1ccccc1)NC(=O)[C@H](CO)NC(=O)CNC(=O)[C@H](CC(=O)O)NC(=O)C(C)(C)NC(=O)[C@@H](N)Cc1c[nH]cn1)C(=O)N[C@H](Cc1ccccc1)C(=O)N[C@H]1CCCCNC(=O)C[C@@H](C(=O)N[C@@H](CCCCN)C(=O)N[C@@H](C)C(=O)N[C@@H](C)C(=O)N[C@@H](CCCCN)C(=O)N[C@@H](CC(=O)O)C(=O)N[C@@H](Cc2ccccc2)C(=O)N[C@H](C(=O)N[C@@H](CC(N)=O)C(=O)N[C@@H](Cc2c[nH]c3ccccc23)C(=O)N[C@@H](CC(C)C)C(=O)N[C@H](C(=O)N[C@@H](CCC(N)=O)C(=O)N[C@H](C(=O)N[C@@H](CCCCN)C(=O)N[C@H](C(=O)N[C@H](C(=O)N[C@@H](CC(=O)O)C(N)=O)[C@@H](C)O)[C@@H](C)CC)[C@@H](C)O)[C@@H](C)CC)[C@@H](C)CC)NC(=O)[C@H](CC(=O)O)NC(=O)[C@H](CC(C)C)NC(=O)[C@H]([C@@H](C)CC)NC1=O [Example 88] (H-H[Aib]DGSFSDE[Nle][dF]KILDDKAAKDFINWLIQTKITD-NH2; lactam 12-16)
Emax [1, 6]: 98.7%
EC50 [1, 7]: 0.00631 nM
Emax [2]: 102%
EC50 [2]: 0.00316 nM
Emax [3]: 99.2%
EC50 [3]: 1.26 nM
Emax [4, 8]: 96.4%
EC50 [4, 9]: 0.1 nM
remaining at 0.25 h [5]: 0.5%

CCCC[C@H](NC(=O)[C@H](CCC(=O)O)NC(=O)[C@H](CC(=O)O)NC(=O)[C@H](CO)NC(=O)[C@H](Cc1ccccc1)NC(=O)[C@H](CO)NC(=O)CNC(=O)[C@H](CC(=O)O)NC(=O)C(C)(C)NC(=O)[C@@H](N)Cc1c[nH]cn1)C(=O)N[C@H](Cc1ccccc1)C(=O)N[C@H](C(=O)N[C@H](C(=O)N[C@@H](CC(C)C)C(=O)N[C@@H](CC(=O)O)C(=O)N[C@H]1CCC(=O)NCCCC[C@@H](C(=O)N[C@@H](CC(=O)O)C(=O)N[C@@H](Cc2ccccc2)C(=O)N[C@H](C(=O)N[C@@H](CC(N)=O)C(=O)N[C@@H](Cc2c[nH]c3ccccc23)C(=O)N[C@@H](CC(C)C)C(=O)N[C@H](C(=O)N[C@@H](CCC(N)=O)C(=O)N[C@H](C(=O)N[C@@H](CCCCN)C(=O)N[C@H](C(=O)N[C@H](C(=O)N[C@@H](CC(=O)O)C(N)=O)[C@@H](C)O)[C@@H](C)CC)[C@@H](C)O)[C@@H](C)CC)[C@@H](C)CC)NC(=O)[C@H](C)NC(=O)[C@H](C)NC(=O)[C@H](CCCCN)NC1=O)[C@@H](C)CC)[C@@H](C)O [Example 89] (H-H[Aib]DGSFSDE[Nle][dF]TILDEKAAKDFINWLIQTKITD-NH2; lactam 16-20 (inferred); C-terminus assumed)
Emax [1, 6]: 98.4%
EC50 [1, 7]: 0.00631 nM
Emax [2]: 102%
EC50 [2]: 0.00251 nM
Emax [3]: 99.6%
EC50 [3]: 3.16 nM
Emax [4, 8]: 94.5%
EC50 [4, 9]: 0.794 nM
remaining at 0.25 h [5]: 10.5%

CCCC[C@H](NC(=O)[C@H](CCC(=O)O)NC(=O)[C@H](CC(=O)O)NC(=O)[C@H](CO)NC(=O)[C@H](Cc1ccccc1)NC(=O)[C@H](CO)NC(=O)[C@@H](C)NC(=O)[C@H](Cc1nn[nH]n1)NC(=O)C(C)(C)C(=O)NCCc1c[nH]cn1)C(=O)N[C@H](Cc1ccccc1)C(=O)N[C@H](C(=O)N[C@@](C)(CC(C)C)C(=O)N[C@@H](CC(C)C)C(=O)N[C@@H](CC(=O)O)C(=O)N[C@H]1CCC(=O)NCCCC[C@@H](C(=O)N[C@@H](CC(=O)O)C(=O)N[C@@H](Cc2ccccc2)C(=O)N[C@H](C(=O)N[C@H]2CCC(=O)NCCCC[C@@H](C(=O)N[C@H](C(=O)N[C@@H](CCCCN)C(=O)N[C@H](C(=O)N[C@H](C(=O)N[C@@H](Cc3ccccc3)C(N)=O)[C@@H](C)O)[C@@H](C)CC)[C@@H](C)O)NC(=O)[C@H]([C@@H](C)CC)NC(=O)[C@H](CC(C)C)NC(=O)[C@H](Cc3c[nH]c4ccccc34)NC2=O)[C@@H](C)CC)NC(=O)[C@H](C)NC(=O)[C@H](C)NC(=O)[C@H](CCCCN)NC1=O)[C@@H](C)O [Example 116] ({Malonyl(2,2-Me2,histaminyl)}-[Ala(1H-tetrazol-5-yl)][dA]SFSDE[Nle][dF]T[αMeL]LDEKAAKDFIEWLIKTKITF-NH2; lactam 14-18, 22-26 (inferred); C-terminus assumed)
Emax [1, 6]: 99.9%
EC50 [1, 7]: 0.316 nM
Emax [2]: 103%
EC50 [2]: 0.00794 nM
Emax [3]: 94.4%
EC50 [3]: 0.316 nM
Emax [4, 8]: 95.5%
EC50 [4, 9]: 0.2 nM

CCCC[C@H](NC(=O)[C@H](CCC(=O)O)NC(=O)[C@H](CC(=O)O)NC(=O)[C@H](CO)NC(=O)[C@H](Cc1ccccc1)NC(=O)[C@H](CO)NC(=O)[C@@H](C)NC(=O)[C@H](Cc1nn[nH]n1)NC(=O)C(C)(C)C(=O)NCCc1c[nH]cn1)C(=O)N[C@H](Cc1ccccc1)C(=O)N[C@H](C(=O)N[C@@](C)(CC(C)C)C(=O)N[C@@H](CC(C)C)C(=O)N[C@@H](CC(=O)O)C(=O)N[C@H]1CCC(=O)NCCCC[C@@H](C(=O)N[C@@H](CC(=O)O)C(=O)N[C@@H](Cc2ccccc2)C(=O)N[C@H](C(=O)N[C@H]2CCC(=O)NCCCC[C@@H](C(=O)N[C@H](C(=O)N[C@@H](CCCCN)C(N)=O)[C@@H](C)O)NC(=O)[C@H]([C@@H](C)CC)NC(=O)[C@H](CC(C)C)NC(=O)[C@H](Cc3c[nH]c4ccccc34)NC2=O)[C@@H](C)CC)NC(=O)[C@H](C)NC(=O)[C@H](C)NC(=O)[C@H](CCCCN)NC1=O)[C@@H](C)O [Example 117] ({Malonyl(2,2-Me2,histaminyl)}-[Ala(1H-tetrazol-5-yl)][dA]SFSDE[Nle][dF]T[αMeL]LDEKAAKDFIEWLIKTK-NH2; lactam 14-18, 22-26; C-terminus assumed)
pEC50 [1]: 9.80
Emax ([1]; HEK293, read-out: Mouse GLP-2R agonist cAMP Emax): 99.3%
Emax [2]: 103%
EC50 [2]: 0.00316 nM
Emax [3]: 94.7%
EC50 [3]: 0.126 nM
pEC50 [4]: 10.10
Emax ([4]; HEK293, read-out: Mouse GLP-1R agonist cAMP Emax): 96.9%
